Source: PMC9181924, “Antiproliferative and Proapoptotic Effects of Phenanthrene Derivatives Isolated from Bletilla striata on A549 Lung Cancer Cells” (Molecules, 2022)
“And” between values parts separate entries of the source, which are not always exact repeats. Equal entries are not always repeated. Where two headings read alike, the source gives them in different places.

Key:
ERK1/2 = test: Western blot, ERK1/2 phosphorylation in A549 cells; assay type: cell-based, human; conditions: A549, 3.13, 6.25, and 12.5 µM, 48 h; p < 0.05 at 3.13 μM, p < 0.01 at 6.25 and 12.5 μM vs control
Experimental: (§1) SDS–PAGE and PVDF membranes were used to separate and transfer the protein, respectively. […] The membranes were washed with TBST and incubated with an HRP-conjugated secondary antibody for 1 h at 37 °C. Finally, the protein bands were detected with a Tanon 5200 chemiluminescent imaging system (Tanon, Shanghai, China).

A549 cells [1] = test: EdU proliferation experiment; assay type: cell-based, human; conditions: 48 h, control 100%
Experimental: The cells were digested by trypsin and cultivated in 96-well plates (3.5 × 10^3 cells per well) for 24 h. They were incubated with compound 1 (3.13, 6.25, and 12.5 μM) for 48 h. Next, prepared EdU-labeling solution (10 µM) was used to stain the cells in an incubator at 37 °C for 2 h. The cells were fixed for 15 min with 4% cold paraformaldehyde. After that, Triton X-100 (0.3%) and Click-iT reaction cocktail were successively used to handle cells. Finally, DAPI staining was applied to the cells to counterstain them. A Leica DMI3000B inverted fluorescence microscope (Leica, Wetzlar, Germany) was used to capture the fluorescent images. In addition, to count the cells, ImageJ software (version 1.8.0) (National Institutes of Health, Bethesda, MD, USA) was used. EdU positive cells (%) = (green EdU-stained cells/blue DAPI-stained cells) × 100.

A549 cells [2] = test: Transwell migration assay; assay type: cell-based, human; conditions: 24 h, control 100%
Experimental: The migratory effect of compound 1 (3.13, 6.25, and 12.5 μM) on A549 cells was further detected by using transwell chambers. Briefly, the cells treated with compound 1 were placed into the upper wells, while the medium with 10% FBS was added to the bottom wells. After a 24-h incubation, non-migrated cells were cleaned up, and the migrated cells were fixed for 30 min with 4% paraformaldehyde and dyed by 0.1% crystal violet. The images and the cell numbers were obtained by the Leica microscope and ImageJ, respectively.

Akt = test: Western blot, Akt phosphorylation in A549 cells; assay type: cell-based, human; conditions: A549, 3.13, 6.25, and 12.5 µM, 48 h; p < 0.05 at 3.13 μM, p < 0.01 at 6.25 and 12.5 μM vs control
Experimental: as §1

A549 cells [3] = test: Cell cycle analysis by flow cytometry; assay type: cell-based, human; conditions: 48 h; for percentage of G0/G1 phase cells / percentage of S phase cells: Figure 3C; for percentage of G2/M phase cells: untreated control 7.41 ± 0.79%
Experimental: According to the manufacture’s instructions, the cells were treated with compound 1 (3.13, 6.25, and 12.5 μM) for 48 h. Then, they were cultured with 500 μL staining solution (RNase A:PI = 1:9) for 1 h at room temperature without light after fixation with 70% pre-chilled ethanol for 2 h. The DNA content was instantly detected with a BD FACSCanto II flow cytometer (BD Biosciences, Franklin Lakes, NJ, USA).

A549 cells [4] = test: Apoptosis by flow cytometry (Annexin V/PI); assay type: cell-based, human; conditions: 48-h treatment, control 1.21 ± 0.37%
Experimental: Quadrants 2 (Annexin V+/PI+) and 3 (Annexin V+/PI−) pointed to the percentage of apoptotic cells. As for the control group, the apoptosis rate was only 1.21 ± 0.37%. […] The data disclosed that compound 1 greatly promoted the apoptosis of A549 cells, especially in the high-concentration group (12.5 µM).
The A549 cells were treated with compound 1 (3.13, 6.25, and 12.5 μM), and the cell apoptosis was detected by flow cytometry assay as described in our previous report.

A549 cells [5] = test: Wound healing assay; assay type: cell-based, human; conditions: 24 h, control 56.46 ± 4.46%
Experimental: Cells were placed in 6-well plates for the wound healing test. The scratches were formed using a sterile 200-µL pipette tip when the cells treated with compound 1 (3.13, 6.25, and 12.5 μM) had grown to 90% confluence. After a 24-h incubation, the images were obtained with the Leica microscope and the scratch area was calculated with the ImageJ.

A549 cells [6] = test: MTT cytotoxicity assay on A549 cells; assay type: cell-based, human; conditions: mean ± SD, n = 3, read-out: IC50, cytotoxicity against A549 cells
Source text: (§2) The purity of the tested compounds was more than 98%. The cytotoxic effects of isolated phenanthrenes on A549 and BEAS-2B cells were examined by MTT experiments as described in our previous report.

Bcl-2 = test: Western blot, Bcl-2 expression in A549 cells; assay type: cell-based, human; conditions: A549, 3.13, 6.25, and 12.5 μM, 48 h; p < 0.01 vs control
Experimental: as §1

Bax = test: Western blot, Bax expression in A549 cells; assay type: cell-based, human; conditions: A549, 6.25 and 12.5 μM, 48 h; p < 0.01 vs control
Experimental: as §1

MEK1/2 = test: Western blot, MEK1/2 phosphorylation in A549 cells; assay type: cell-based, human; conditions: A549, 3.13, 6.25, and 12.5 μM, 48 h; p < 0.01 vs control
Experimental: as §1

[7] = MTT cytotoxicity assay on BEAS-2B cells; assay type: cell-based; conditions: BEAS-2B cells (normal human lung cells), BEAS-2B normal human lung cells, read-out: IC50, cytotoxic effect on BEAS-2B cells
Source text: as §2

For COc1cc(O)cc2c1-c1ccc(O)c(-c3c(O)cc(OC)c4c3CCc3cc(O)ccc3-4)c1CC2 [Compound 1, 4,5′-dimethoxy-9,9′,10,10′-tetrahydro-[1,1′-biphenanthrene]-2,2′,7,7′-tetraol], the “expression ratio of p-ERK/ERK” value (ERK1/2) was “significantly suppressed”, the “percentage of EdU-positive cells” value (A549 cells [1]; A549, 3.13 μM) was 67.66 ± 4.51% and the “percentage of EdU-positive cells” value (A549 cells [1]; A549, 6.25 μM) was 56.33 ± 4.50%. For the same compound, the “percentage of EdU-positive cells” value (A549 cells [1]; A549, 12.5 μM) was 34.01 ± 4.58%, the “migrated cell numbers (transwell)” value (A549 cells [2]; A549, 3.13 µM) was 72.09 ± 4.65% and the “migrated cell numbers (transwell)” value (A549 cells [2]; A549, 6.25 µM) was 29.45 ± 2.92%. The “migrated cell numbers (transwell)” value (A549 cells [2]; A549, 12.5 µM) was 10.19 ± 1.25%, the “expression ratio of p-Akt/Akt” value (Akt) was “significantly suppressed” and the “percentage of G0/G1 phase cells” value (A549 cells [3]; A549, 3.13 μM) was 76.42%. The “percentage of S phase cells” value (A549 cells [3]; A549, 3.13 μM) was 11.73%, the “percentage of G2/M phase cells” value (A549 cells [3]; A549, 3.13 μM) was 11.85 ± 1.26% and 11.85% and the “percentage of G0/G1 phase cells” value (A549 cells [3]; A549, 6.25 μM) was 70.16%. For the same compound, the “percentage of S phase cells” value (A549 cells [3]; A549, 6.25 μM) was 15.31%, the “percentage of G2/M phase cells” value (A549 cells [3]; A549, 6.25 μM) was 14.53 ± 1.75% and 14.53% and the “percentage of G0/G1 phase cells” value (A549 cells [3]; A549, 12.5 μM) was 50.11%. For the same compound, the “percentage of S phase cells” value (A549 cells [3]; A549, 12.5 μM) was 22.81%, the “percentage of G2/M phase cells” value (A549 cells [3]; A549, 12.5 μM) was 27.08 ± 2.65% and 27.08% and the “apoptosis rate (Annexin V+/PI+ and Annexin V+/PI−)” value (from here on “apoptosis rate”) (A549 cells [4]; A549, 3.13 µM) was 2.57 ± 0.53%. For the same compound, the “apoptosis rate” value (A549 cells [4]; A549, 6.25 µM) was 12.25 ± 2.21%, the “apoptosis rate” value (A549 cells [4]; A549, 12.5 µM) was 49.79 ± 8.54% and the “migration rate (wound healing)” value (A549 cells [5]; A549, 3.13 µM) was 31.10 ± 2.92%. The “migration rate (wound healing)” value (A549 cells [5]; A549, 6.25 µM) was 15.23 ± 1.81%, the “migration rate (wound healing)” value (A549 cells [5]; A549, 12.5 µM) was 11.01 ± 1.81% and the IC50 (A549 cells [6]; A549 cells) was 6.86 ± 0.71 µM. The IC50 (A549 cells [6]; Homo sapiens, A549, A549 cells) was less than 10 µM, the Bcl-2/Bax ratio (Bcl-2) was “reduced” and the Bcl-2 protein levels (Bcl-2) was “significantly decreased”. For the same compound, the Bax protein levels (Bax) was “increased”, the “expression ratio of p-MEK/MEK” value (MEK1/2) was “significantly suppressed” and the IC50 [7] was 15.2 ± 1.62 µM.

Work on COc1cc(O)c(-c2c(O)cc3c(c2OC)-c2ccc(O)c(Cc4ccc(O)cc4)c2CC3)c2c1-c1ccc(O)cc1CC2 [Compound 2, 4,4′-dimethoxy-8′-(p-hydroxybenzyl)-9,9′,10,10′-tetrahydro-[1,3′-biphenanthrene]-2,2′,7,7′-tetraol] yielded an IC50 (A549 cells [6]; A549 cells) of 8.75 ± 0.61 µM and an IC50 (A549 cells [6]; Homo sapiens, A549, A549 cells) of less than 10 µM.

Compound COc1cc(O)c(-c2c(O)cc3c(c2OC)-c2ccc(O)cc2CC3)c2c1-c1ccc(O)cc1CC2 [Compound 3, blestrianol A] has an IC50 (A549 cells [6]; Homo sapiens, A549, A549 cells) of 10.5 ± 2.55 µM.

In the case of COc1cc(O)cc2c1-c1cc(-c3c(O)cc(OC)c4c3CCc3cc(O)ccc3-4)c(O)cc1CC2 [Compound 4, gymconopin C], the IC50 (A549 cells [6]; A549 cells) is reported as 9.91 ± 0.68 µM and the IC50 (A549 cells [6]; Homo sapiens, A549, A549 cells) is reported as less than 10 µM.

Compound COc1c(O)ccc2c1ccc1c(-c3c(O)cc(OC)c4c3ccc3cc(O)ccc34)c(O)cc(OC)c12 [Compound 5, bleformin G] has an IC50 (A549 cells [6]; Homo sapiens, A549, A549 cells) greater than 100 µM.

Work on COc1cc(O)c(-c2c(O)cc(OC)c3c2ccc2cc(O)ccc23)c2ccc3cc(O)ccc3c12 [Compound 6, blestriarene C] yielded an IC50 (A549 cells [6]; A549 cells) of 9.45 ± 0.52 µM and an IC50 (A549 cells [6]; Homo sapiens, A549, A549 cells) of less than 10 µM.

Compound COc1cc(O)c(Cc2ccc(O)cc2)c2c1-c1ccc(Oc3c(O)cc(OC)c4c3CCc3cc(O)ccc3-4)cc1CC2 [Compound 8, blestanol C] has an IC50 (A549 cells [6]; A549 cells) of 8.62 ± 0.64 µM and an IC50 (A549 cells [6]; Homo sapiens, A549, A549 cells) of less than 10 µM.

Compound COc1cc(O)cc2c1-c1ccc(O)cc1CC2 [Compound 9, 2,7-dihydroxy-4-methoxy-9,10-dihydrophenanthrene] has an IC50 (A549 cells [6]; Homo sapiens, A549, A549 cells) of 51.5 ± 1.87 µM.

Compound COc1cc(O)c(O)c2c1-c1ccc(O)cc1CC2 [Compound 10, 4-methoxy-9,10-dihydrophenanthrene-1,2,7-triol] has an IC50 (A549 cells [6]; Homo sapiens, A549, A549 cells) of 16.3 ± 2.22 µM.

With COc1cc(O)c(Cc2ccc(O)cc2)c2c1-c1ccc(O)cc1CC2 [Compound 12, 1-(p-hydroxybenzyl)-4-methoxy-9,10-dihydrophenanthrene-2,7-diol] the IC50 (A549 cells [6]; Homo sapiens, A549, A549 cells) was 33.3 ± 0.49 µM.

Work on COc1ccc(Cc2c(O)cc(O)c3c2CCc2cc(OC)ccc2-3)cc1 [Compound 13, pleioanthrenin] yielded an IC50 (A549 cells [6]; A549 cells) of 9.52 ± 0.47 µM and an IC50 (A549 cells [6]; Homo sapiens, A549, A549 cells) of less than 10 µM.

Work on COc1cc(O)c(Cc2ccc(O)cc2)c2c1-c1cc(Cc3ccc(O)cc3)c(O)cc1CC2 [Compound 14, 1,6-bis(p-hydroxybenzyl)-4-methoxy-9,10-dihydrophenanthrene-2,7-diol] yielded an IC50 (A549 cells [6]; Homo sapiens, A549, A549 cells) of 12 ± 0.79 µM.

COc1cc2ccc3cc(O)ccc3c2c(OC)c1O [Compound 16, 3,7-dihydroxy-2,4-dimethoxyphenanthrene] showed an IC50 (A549 cells [6]; Homo sapiens, A549, A549 cells) of 63.8 ± 4.67 µM.

COc1cc(O)c(Cc2ccc(O)cc2)c2ccc3cc(O)ccc3c12 [Compound 17, 1-(p-hydroxybenzyl)-4-methoxyphenanthrene-2,7-diol] gave an IC50 (A549 cells [6]; Homo sapiens, A549, A549 cells) of 32.6 ± 2.33 µM.
